The values below come from patent US10041937B2, “Macrophage identification agent, and identification method, sorting method, evaluation method, screening method and kit using the macrophage identifier agent” (CANON KABUSHIKI KAISHA, priority 2013, dated 2018).

The test has as its system M1 macrophages and M2 macrophages differentiated from mouse bone marrow cells. Description: Subtype identification by staining and flow cytometry of M1 and M2 macrophages differentiated from mouse bone marrow cells. As to conditions: for subtype more strongly stained: two compounds used in combination, each 1 μM. The class given is cell-based, Balb/c mouse. On the procedure:
The culture of subtypes was performed according to a protocol described in NPL 7. Specifically, bone marrow cells collected from the femur of a Balb/c mouse of 8 to 10 weeks old were dispersed to a concentration of 1×10^6/mL in an IMDM containing 20% FBS and 1% P/S, and 1×10^7 cells were seeded in a 100 mm dish. After further adding an M-CSF (manufactured by Pepro Tech) thereto to a concentration of 50 ng/mL, the cells were incubated for 3 to 4 days in the presence of 5% CO2 at 37° C., so as to differentiate macrophage precursor cells to macrophages. After exchanging the medium, the M-CSF was added to a concentration of 50 ng/mL, and the incubation was performed for further 3 to 4 days in the presence of 5% CO2 at 37° C., and then, the resulting cells were differentiated to macrophage. By adding 200 ng of interferon-γ and 1 μg of […] (both manufactured by Pepro Tech) to the IMDM containing 5% FBS and 1% P/S, the cells were differentiated to the subtype M1. Besides, by adding 100 ng of IL-4 to the IMDM containing 5% FBS and 1% P/S, the cells were differentiated to the subtype M2. After performing the incubation for further 3 days in the presence of 5% CO2 at 37° C., the resultant was rinsed with PBS, and PBS containing 0.25% trypsin and 1 mM EDTA (ethylenediaminetetraacetic acid) was used for collecting, from the dish, the macrophages having been differentiated to the subtypes M1 and M2.
Thereafter, the tube was centrifuged at 180 G for 10 minutes to remove the supernatant, a dye for identifying dead cells (aqua fluorescent reactive dye, manufactured by Invitrogen; which is hereinafter sometimes abbreviated as aqua) was added thereto, and the resultant was incubated at 4° C. for 10 minutes. Subsequently, the tube was centrifuged at 180 G for 10 minutes to remove the supernatant, cells were suspended in a FACS buffer to be analyzed by using FACSCanto (trademark) II flow cytometry apparatus manufactured by BD.
The analysis was performed on a cell population showing a low signal for the aqua, so as to analyze a cell population from which dead cells were eliminated. […] A histogram was prepared by plotting fluorescence intensity obtained in the FITC channel on the abscissa and plotting the number of cells at each fluorescence intensity on the ordinate, which is shown in FIG. 2.
Histograms were prepared by plotting fluorescence intensities obtained in the respective channels on the abscissa and plotting the numbers of cells at each fluorescence intensity on the ordinate. A difference between a fluorescence intensity (FM1) at a peak top of the histogram of the M1 macrophage and a fluorescence intensity (FM2) at a peak top of the histogram of the M2 macrophage is divided by a sum of a peak width (WM1) of the histogram of the M1 macrophage and a peak width (WM2) of the histogram of the M2 macrophage, so as to obtain a resolution R, which was used as an index of the identification ability for a subtype (see the following expression (1)). Resolution R=|FM1−FM2|/(WM1+WM2) Expression (1)

[1] abbreviates: M1 vs M2 macrophages from mouse bone marrow cells, general formula (6) dyes (Table 7).
[2] abbreviates: class based on resolution R, general formula (6) dyes (Table 7).
The mark [3] stands for this setting: mouse bone marrow-derived M1 macrophages, channel listed per compound, general formula (6) dyes (Table 7).
[4] abbreviates: mouse bone marrow-derived M2 macrophages, channel listed per compound, general formula (6) dyes (Table 7).
[5] abbreviates: R=|FM1−FM2|/(WM1+WM2), compound 1 μM.
Setting [6] is: fluorescence intensity at peak top of histogram, compound 1 μM, 37° C., 30 minutes.
[7] abbreviates: M1 vs M2 macrophages from mouse bone marrow cells, general formula (11) dyes (Table 9).
[8] abbreviates: class based on resolution R, general formula (11) dyes (Table 9).
Where [9] appears, read: mouse bone marrow-derived M1 macrophages, channel listed per compound, general formula (11) dyes (Table 9).
Setting [10] is: mouse bone marrow-derived M2 macrophages, channel listed per compound, general formula (11) dyes (Table 9).
Setting [11] is: M1 vs M2 macrophages from mouse bone marrow cells, general formula (10) dyes (Table 8).
Where [12] appears, read: class based on resolution R, general formula (10) dyes (Table 8).
The mark [13] stands for this setting: mouse bone marrow-derived M1 macrophages, channel listed per compound, general formula (10) dyes (Table 8).
Where [14] appears, read: mouse bone marrow-derived M2 macrophages, channel listed per compound, general formula (10) dyes (Table 8).

With `CN1/C(=C\C=C\C2=[N+](C)c3ccccc3C2(C)C)C(C)(C)c2ccccc21` [(95)], the “Resolution ratio R” value under setting [1] turned out to be 0.421. For the same compound, the “Evaluation of macrophage subtype identification” value (“Evaluation” below) under setting [2] was “B (the compound is good in the subtype identification (namely, the resolution R is 0.15 or more and less than 0.5))”. For the same compound, under setting [3], the “Peak position of M1 macrophage” value was determined as 71.57. Besides, the “Peak position of M2 macrophage” value under setting [4] is on record as 133.45.
For the compound `CSc1ccc(N2c3ccc(/C=C4/SC(=S)N(CCC(=O)O)C4=O)cc3C3CCCC32)cc1` (stereo not drawn) [(6)], the “Resolution ratio R” value under setting [5] was found to be 0.504. For the same compound, under setting [6], the “Peak position of M1 macrophage” value is given as 26.5 and the “Peak position of M2 macrophage” value is listed as 50.4. Further, where the note is “rated from resolution R”, the “Evaluation” value is recorded as “A (The compound is very good in the subtype identification (namely, the resolution R is 0.5 or more))”.
For the compound `Cc1cc(C)n2c1C=C1C=CC(CCC(=O)O)=[N+]1[B-]2(F)F` [(157)], the “Resolution ratio R” value under setting [7] amounted to 0.637. Under setting [8], the “Evaluation” value was “A (The compound is very good in the subtype identification (namely, the resolution R is 0.5 or more))”. The “Peak position of M1 macrophage” value under setting [9] was determined as 2.57. The “Peak position of M2 macrophage” value under setting [10] amounted to 5.62.
Turning to `CCN(CC)c1ccc2cc(-c3nc4ccc(OC)cc4o3)c(=O)oc2c1` [(132)], the “Resolution ratio R” value under setting [11] came to 0.624. Under setting [12], the “Evaluation” value is reported as “A (The compound is very good in the subtype identification (namely, the resolution R is 0.5 or more))”. Moreover, the “Peak position of M1 macrophage” value under setting [13] amounted to 30.3. In addition, the “Peak position of M2 macrophage” value under setting [14] was 53.8.
Turning to `CCCCCCCCN1C(=O)/C(=c2\s/c(=C/c3ccc4c(c3)C3CCCC3N4c3ccc(C=C(c4ccccc4)c4ccccc4)cc3)c(=O)n2CC(=O)O)SC1=S` (stereo not drawn) [(38)], the “Resolution ratio R” value under setting [5] came to 0.724. In addition, under setting [6], the “Peak position of M1 macrophage” value is listed as 3.74 and the “Peak position of M2 macrophage” value was 1.63. In addition, the “Evaluation” value (rated from resolution R) is listed as “A (The compound is very good in the subtype identification (namely, the resolution R is 0.5 or more))”.
Regarding `CN1\C(=C/C=C/C=C/C2=[N+](C)c3ccc4ccccc4c3C2(C)C)C(C)(C)c2c1ccc1ccccc21` [(92)], the “Resolution ratio R” value under setting [1] came to 0.534. Moreover, the “Evaluation” value under setting [2] was “A (The compound is very good in the subtype identification (namely, the resolution R is 0.5 or more))”. In addition, under setting [3], the “Peak position of M1 macrophage” value was 2.27. Under setting [4], the “Peak position of M2 macrophage” value is reported as 3.9.
For the compound `CC1=CC(C)=[N+]2C1=C(c1ccccc1)c1c(C)cc(C)n1[B-]2(F)F` [(148)], the “Resolution ratio R” value under setting [7] is 0.193. Besides, the “Evaluation” value under setting [8] was “B (the compound is good in the subtype identification (namely, the resolution R is 0.15 or more and less than 0.5))”. Also, the “Peak position of M1 macrophage” value under setting [9] came out at 109. The “Peak position of M2 macrophage” value under setting [10] is on record as 151.
Regarding `CCN1/C(=C\C=C\c2ccc3ccccc3[n+]2CC)C=Cc2ccccc21` [(104)], under setting [1], the “Resolution ratio R” value came out at 0.698. The “Evaluation” value under setting [2] is recorded as “A (The compound is very good in the subtype identification (namely, the resolution R is 0.5 or more))”. Further, the “Peak position of M1 macrophage” value under setting [3] is reported as 95.26. For the same compound, under setting [4], the “Peak position of M2 macrophage” value came to 197.19. Moreover, where the note is “subtype strongly stained, general formula (6) dyes (Table 7)”, the Selectivity entry was “M2”.
As to `N#C/C(=C\C=C\c1ccc2c(c1)C1CCCC1N2c1ccc(C=C(c2ccccc2)c2ccccc2)cc1)C(=O)O` (stereo not drawn) [(74)], the “Resolution ratio R” value under setting [5] is 0.538. For the same compound, under setting [6], the “Peak position of M1 macrophage” value was found to be 2.52 and the “Peak position of M2 macrophage” value was determined as 1.25. In addition, the “Evaluation” value (rated from resolution R) was “A (The compound is very good in the subtype identification (namely, the resolution R is 0.5 or more))”.
For `CC1(C)CCN2CCC(C)(C)c3c2c1cc1cc(-c2nc4ccccc4s2)c(=O)oc31` [(138)], the “Resolution ratio R” value under setting [11] came to 0.312. Besides, the “Evaluation” value under setting [12] is “B (the compound is good in the subtype identification (namely, the resolution R is 0.15 or more and less than 0.5))”. Moreover, the “Peak position of M1 macrophage” value under setting [13] stood at 20.6. In addition, under setting [14], the “Peak position of M2 macrophage” value is listed as 28.0.
On to `CCN(CC)c1ccc2cc(-c3nc4cc(C(=O)O)ccc4o3)c(=O)oc2c1` [(127)], for which the “Resolution ratio R” value under setting [11] amounted to 0.381. Under setting [12], the “Evaluation” value is “B (the compound is good in the subtype identification (namely, the resolution R is 0.15 or more and less than 0.5))”. The “Peak position of M1 macrophage” value under setting [13] turned out to be 3.99. Under setting [14], the “Peak position of M2 macrophage” value came to 6.00.
Take `CCOC(=O)CN1C(=O)/C(=C\c2ccc3c(c2)C2CCCC2N3c2ccccc2)SC1=S` (stereo not drawn) [(48)]: under setting [5], the “Resolution ratio R” value is reported as 0.621. Moreover, under setting [6], the “Peak position of M1 macrophage” value was found to be 65.4 and the “Peak position of M2 macrophage” value worked out at 9.74. Besides, the “Evaluation” value (rated from resolution R) was “A (The compound is very good in the subtype identification (namely, the resolution R is 0.5 or more))”.
On to `CCN1/C(=C\C=C\C2=[N+](CC)c3ccccc3C23CCCCC3)C2(CCCCC2)c2ccccc21` [(99)], for which, under setting [1], the “Resolution ratio R” value was 0.673. For the same compound, the “Evaluation” value under setting [2] is reported as “A (The compound is very good in the subtype identification (namely, the resolution R is 0.5 or more))”. Moreover, the “Peak position of M1 macrophage” value under setting [3] is recorded as 191.14. Also, the “Peak position of M2 macrophage” value under setting [4] is 331.51.
As to `O=C(O)CCN1C(=O)/C(=C\c2ccc3c(c2)C2CCCC2N3c2ccccc2)SC1=S` (stereo not drawn) [(13)], under setting [5], the “Resolution ratio R” value is on record as 0.714. Further, under setting [6], the “Peak position of M1 macrophage” value is 7.74 and the “Peak position of M2 macrophage” value worked out at 20.4. For the same compound, the “Evaluation” value (rated from resolution R) is reported as “A (The compound is very good in the subtype identification (namely, the resolution R is 0.5 or more))”.
As for `CCN1/C(=C\C=C\c2sc3ccccc3[n+]2CC)Sc2ccccc21` [(100)], the “Resolution ratio R” value under setting [1] is given as 0.372. For the same compound, the “Evaluation” value under setting [2] was “B (the compound is good in the subtype identification (namely, the resolution R is 0.15 or more and less than 0.5))”. In addition, the “Peak position of M1 macrophage” value under setting [3] amounted to 16.41. Also, the “Peak position of M2 macrophage” value under setting [4] was 32.87.
For the compound `COC(=O)COc1ccc(/C=C/C2=[N+]3C(=Cc4ccc(-c5cccs5)n4[B-]3(F)F)C=C2)cc1` [compound (161)], the “subtype more strongly stained” value is on record as “the M1 macrophages show higher fluorescence intensity in the APC channel than the M2 macrophages”. In addition, under setting [7], the “Resolution ratio R” value is recorded as 0.582. The “Evaluation” value under setting [8] is reported as “A (The compound is very good in the subtype identification (namely, the resolution R is 0.5 or more))”. The “Peak position of M1 macrophage” value under setting [9] turned out to be 38.4. Moreover, the “Peak position of M2 macrophage” value under setting [10] was 9.02.
In the case of `CCOC(=O)Cn1c(=O)/c(=C\c2ccc3c(c2)C2CCCC2N3c2ccc(OC)cc2)s/c1=C1/SC(=O)N(CC)C1=O` (stereo not drawn) [(45)], under setting [5], the “Resolution ratio R” value was determined as 0.822. Moreover, under setting [6], the “Peak position of M1 macrophage” value was determined as 18.2 and the “Peak position of M2 macrophage” value was 4.84. For the same compound, the “Evaluation” value (rated from resolution R) was “A (The compound is very good in the subtype identification (namely, the resolution R is 0.5 or more))”.
`CCN1C(=C/C=C/c2n(CC)c3cc(Cl)c(Cl)cc3[n+]2CC)N(CC)c2cc(Cl)c(Cl)cc21` [compound (103)]: the “subtype more strongly stained” value was “the M2 macrophage shows a higher fluorescence intensity in the PE-Cy7 channel than the M1 macrophage”. Also, the “Resolution ratio R” value under setting [1] is 0.597. For the same compound, under setting [2], the “Evaluation” value is reported as “A (The compound is very good in the subtype identification (namely, the resolution R is 0.5 or more))”. In addition, the “Peak position of M1 macrophage” value under setting [3] was determined as 2.97. Further, under setting [4], the “Peak position of M2 macrophage” value was 8.23.
